Measured values reported in patent publication US5504085A, “Triazolo quinoxalines and their preparation and use” (Novo Nordisk A/S, priority 1991, dated 1996).
Converted amounts (≈) assume the structure as drawn.

Key:
[1] = molecular target: AMPA receptors (rat cerebral cortical membrane homogenate); assay: 3H-AMPA binding (Test 1): displacement of 3H-AMPA from AMPA type receptors; details: 5 nM 3H-AMPA, 0° C., 30 min, pH 7.1
Description: The affinity of a substance for one or more of the different types of excitatory amino acid receptors may be studied in simple binding experiments. In essense, the method involves incubation of a particular selected radiolabelled ligand and the particular specific substance to be investigated with brain homogenate which contains the receptor. Measurement of receptor occupancy is made by determination of the radioactivity bound to the homogenate and subtraction of nonspecific binding.
AMPA receptor binding may be studied by using ^3 H-AMPA as radioligand.
The pharmacological properties of the compounds of the present invention can be illustrated by determining their capability for displacing radioactively labelled 2-amino-3-hydroxy-5-methyl-4-isoxazolepropionic acid (AMPA) from the AMPA type receptors. […]
500 μl of thawed rat cerebral cortical membrane homogenate in Tris-HCl (30 mM), CaCI2 (2.5 mM) and KSCN (100 mM) pH 7.1 were incubated at 0° C. for 30 min. with 25 μl ^3 H-AMPA (5 nM final concentration) and the test compound and buffer. Non specific binding was determined by incubation with L-glutamic acid ([…] final concentration). […] Bound radioactivity was measured by scintillation counting. IC50 was determined by Hill analysis of at least four concentrations of test compound.

[2] = tested on: quisqualic acid stimulated spreading depression in chicken retina; assay: Spreading depression (Test 2): inhibition of quisqualic acid stimulated spreading depression in chicken retina; type: cell-based; details: Gallus gallus, 0.25 h, quisqualate 1 μg/ml, 26° C., 15 min incubation with test compound, read-out: TEST 2 IC50 (50% maximal inhibition of quisqualic acid stimulated spreading depression)
Description: The influence of glutamic add analogues on secondary effects of glutamate receptor interactions may be studied in vitro by using the phenomenon of spreading depression in chicken retina. Such experiments will provide information as to the efficades (agonist/antagonist) of the test substances. This is in contrast to binding studies, which only provide information on the affinities of the compounds for the receptor.
The pharmacological properties of the compounds of the present invention can be illustrated by determining their capability for displacing radioactively labelled 2-amino-3-hydroxy-5-methyl-4-isoxazolepropionic acid (AMPA) from the AMPA type receptors.
The antagonism is measured by determining the IC50 value which represents the concentration which produces a ,50% maximal inhibition of quisqualic acid stimulated spreading depression in chicken retina.
Spreading depression (Test 2) […]
The eyes are initially incubated in normal P.S.S. for 15-30 min. and then transferred to P.S.S. containing quisqualate (1μ g/ml). […] The time taken for an S.D. to start in each eye is measured.
After a further 15 min. of incubation in normal P.S.S. the eyes are transferred to normal P.S.S. containing the test compound and incubated for 15 min. […] The time taken for an S.D. to start in each eye is again measured. […]

TEST 1 IC50 (displacement of 50% of the specific binding of 3H-AMPA) [1] [µg/mL] | IC50 [2] [µg/mL] | SMILES
1.3 | 1.3 (≈ 4.81 µM) | O=c1[nH]c2cc(C(F)(F)F)ccc2n2c(=O)[nH]nc12 [Example 3, 7-Trifluoromethyl 1,2, 4!triazolo 4,3-a!quinoxaline-1,4(2H,5H)-dione]
0.09 | 0.47 (≈ 2.07 µM) | N#Cc1ccc2c(c1)[nH]c(=O)c1n[nH]c(=O)n12 [Example 4, 7-Cyano 1,2,4!triazolo 4,3-a!quinoxaline-1,4(2H, 5H)-dione]
